From publication PMC12015663 (Cancer Research Communications, 2025)

Assays:
[1] = system: pERK in A375 (BRAF V600E); experiment: pERK modulation in vitro, MSD ELISA, A375; assay type: cell-based; details: Homo sapiens, A-375, 1 h, read-out: pERK EC50
NF1-LOF ERMS PDX = experiment: Antitumor efficacy in vivo, NF1-LOF ERMS PDX; parameters: species or system mice; details: 25 mg/kg orally daily for 21 days
Experimental: (§1) Female mice with tumors harboring an AGK::BRAF fusion melanoma PDX or NF1-LOF ERMS PDX were established by inoculating NOD or NOG/SCID mice, respectively, with tumor fragments harvested from stock mice. Mice with tumors harboring an NF1-LOF mutation MeWo xenograft were established in 10 mice per treatment group by inoculating 7- to 9-week-old female BALB/c nude mice on the right flank with tumor cells (5 × 10^6) in 0.1 mL of PBS mixed with Matrigel (1:1) for tumor development. For the AGK::BRAF fusion melanoma PDX model, 7- to 8-week-old mice were inoculated subcutaneously on the right flank and randomized into eight mice per treatment group. […]
(§2) Randomization was performed based on the “Matched distribution” method (StudyDirector software, version 3.1.399.19) with the date of randomization denoted as day 0. Tumor volumes and body weight were measured twice per week after randomization. Tumor volume was measured in two dimensions (2D) using a caliper, and the volume was expressed in mm^3 using the formula V = (L × W × W)/2, in which V was tumor volume, L was tumor length (the longest tumor dimension), and W was tumor width (the longest tumor dimension perpendicular to L). Percentage change in tumor volume and body weight was calculated using StudyDirector software (version 3.1.399.19). […]

NF1-LOF MeWo xenograft = experiment: Antitumor efficacy in vivo, NF1-LOF MeWo xenograft; parameters: species or system mice; details: 25 mg/kg orally daily for 28 days
Experimental: as §1, §2

PK parameters in mouse = assay type: in vivo; details: Mouse PK (at efficacious doses), 12 – 25 mg/kg, QD
Experimental: The mice in the control vehicle group were dosed either daily or twice daily.

BRAF wt = system: BRAF wt; parameters: method as in earlier work; details: full length human construct; 0.125 nmol/L GST-tagged BRAF wild type, 12.5 nmol/L biotinylated MEK, ATP 50 μmol/L; 41 (TAK-632: ref 26-28); cited from earlier work
MeWo = experiment: CellTiter-Glo cell viability assay, MeWo
A375 = experiment: CellTiter-Glo cell viability assay, A375
sNF96.2 = experiment: CellTiter-Glo cell viability assay, sNF96.2
[2] = system: pERK in sNF96.2 (NF1-LOF); experiment: pERK modulation in vitro, MSD ELISA, sNF96.2; details: SNF96.2, 1 h, read-out: pERK EC50
NCI-H1838 = experiment: CellTiter-Glo cell viability assay, NCI-H1838
[3] = system: pERK in NCI-H1838 (NF1-LOF); experiment: pERK modulation in vitro, MSD ELISA, NCI-H1838
[4] = system: pERK in NF1-LOF tumor cell lines sNF96.2, MeWo, and NCI-H1838; experiment: pERK modulation pattern, MSD ELISA, statements on all three NF1-LOF tumor cell lines; details: 6 hours after treatment

C[C@@H](NC(=O)c1ncnc(N)c1Cl)c1ncc(C(=O)Nc2cc(C(F)(F)F)c(Cl)cn2)s1 [Tovorafenib]
EC50 [1]: 70 nM
antitumor activity (NF1-LOF ERMS PDX): Lack of significant antitumor activity
tolerability (NF1-LOF ERMS PDX): well tolerated
tolerability (NF1-LOF MeWo xenograft): well tolerated
antitumor activity (NF1-LOF MeWo xenograft; BALB/c nude mice): Lack of significant antitumor activity
Cmin (PK parameters in mouse): 596 to 1265 ng/mL
AUC(0-t) (PK parameters in mouse; plasma, oral, read-out: Daily AUC0-24): 50100 to 96600 ng·h/mL
anti-proliferative activity (MeWo; CTG 72 hours): little activity
EC50 (MeWo; Homo sapiens, 72 h, read-out: Proliferation EC50): 7500 nM
anti-proliferative activity (A375; A375, CTG 72 hours): potent
EC50 (A375; Homo sapiens, A-375, 72 h, read-out: Proliferation EC50): 620 nM
EC50 (sNF96.2; SNF96.2, 72 h, read-out: Proliferation EC50): 990 nM
sensitivity of cell line (sNF96.2; sNF96.2, CTG 72 hours): sensitive
EC50 [2]: 1600 nM
EC50 (NCI-H1838; Homo sapiens, NCI-H1838, 72 h, read-out: Proliferation EC50): > 10000 nM
anti-proliferative activity (NCI-H1838; NCI-H1838, CTG 72 hours): little activity
EC50 ([3]; Homo sapiens, NCI-H1838, 1 h, read-out: pERK EC50): > 10000 nM
extent of the pERK increase ([3]; NCI-H1838, 1 hour after treatment, compared across type II RAF inhibitors): higher extent
